# Source: the OPERA property sets (Mansouri et al. 2018)
# Details: not given
SMILES,log10 Henry constant (atm·m³/mol),log10 Koc (L/kg),log10 vapour pressure (mmHg),ready biodegradability,melting point [°C],boiling point [°C],log10 Koa,log10 biodegradation half-life (days)
CCOP(=S)(OCC)Oc1cc(C)nc(C(C)C)n1,-6.95,2.75,-4.05,not readily biodegradable,,,,
CN1C(=O)OC(C)(C)C1=O,,,,,46,,,
CCCCCCCCCCCC(CCCCCCCC)c1ccccc1 (stereo not drawn),,,,,17.9,,,
c1cc2c(c3c1CCCC3)CCCC2,,,,,16.7,295,,
Nc1cccc(C(F)(F)F)c1,,2.36,,,5.5,187,,
CCCc1cccc(O)c1,,,,,26,228,,
Nc1ccc(C(=O)NCC(=O)O)cc1,,,,,198,,,
Oc1ccc(/C=C/c2cc(O)cc(O)c2)cc1,,,,,254,,,
CC(C)C(=O)OCCc1ccccc1,,,,,,250,,
CCC1(C2=CCCCCC2)C(=O)NC(=O)NC1=O,,,,,174,,,
O=C(O)CC(O)(CC(=O)O)C(=O)O,,,-7.78,readily biodegradable,153,,,
C#CCCCCC#C,,,,,,136,,
C1=CCC2CC=CC2C1 (stereo not drawn),,,,not readily biodegradable,,,,
O=[N+]([O-])OCC(CO[N+](=O)[O-])O[N+](=O)[O-],,,-3.4,,13.5,250,,
CCOP(=S)(Oc1ccc([N+](=O)[O-])cc1)c1ccccc1 (stereo not drawn),,3.12,-6.02,not readily biodegradable,36,,,
CN1CCc2cc3c(cc2C(=O)Cc2ccc4c(c2C1)OCO4)OCO3,,,,,208,,,
CC(C)OC(=O)C(=O)OC(C)C,,,,,,191,,
Brc1ccc2c(c1)Oc1ccccc1O2,,,-4.52,,90,,,
FC(F)(F)c1nc(C(F)(F)F)nc(C(F)(F)F)n1,,,,,-24.8,95.5,,
O=Cc1ccc(C=O)cc1,,,,readily biodegradable,117,246,,
FC(F)(F)C1(F)C(F)(F)C(F)(F)C(F)(F)C(F)(F)C1(F)F,,,2.02,,-44.7,76.3,,
c1ccc2ncncc2c1,,,,,48,241,,
CCc1cccc2ccccc12,-3.16,3.78,-1.6,,-13.9,259,,
CC(C)C(NC(N)=O)NC(N)=O,,,,readily biodegradable,,,,
C[Si](Cl)(c1ccccc1)c1ccccc1,,,,,,295,,

SMILES,log10 Henry constant (atm·m³/mol),log10 Koc (L/kg),log10 vapour pressure (mmHg),ready biodegradability,melting point [°C],boiling point [°C],log10 Koa,log10 biodegradation half-life (days)
COc1cc2c(c(O)c1OC)[C@H](C)NCC2,,,,,160,,,
O=C1CN=C(c2ccccc2)c2cc([N+](=O)[O-])ccc2N1,,,,,225,,,
COc1cc2c(c(OC)c1OC)-c1ccc(OC)c(=O)cc1[C@@H](NC(C)=O)CC2,,,,,156,,,
CC1=C(CC(=O)O)c2cc(F)ccc2/C1=C\c1ccc(S(C)=O)cc1 (stereo not drawn),,,,,183,,,
COc1ccccc1NC(N)=S,,,,,156,,,
c1ccc2nc3ccccc3cc2c1,,4.18,-3.87,,108,346,,
CCOc1ccc(O)cc1,,,,,66.5,246,,
CCOc1ccc(C(COCc2cccc(Oc3ccc(Cl)cc3)c2)C(F)(F)F)cc1 (stereo not drawn),,,-9.01,,,,,
C/C=C(/C)C(=O)O[C@H]1CCN2CC=C(COC(=O)[C@](O)([C@H](C)OC)C(C)(C)O)[C@H]12,,,,,95,,,
CC(C)(C)c1cc(C(=O)O)cc(C(C)(C)C)c1O,,,,,208,,,
C/C(=C\c1ccccc1)C(=O)O,,,-3.04,,80,,,
CC(C)(CO)CO,,,,not readily biodegradable,130,208,,
NC=O,,,-1.21,readily biodegradable,2.55,220,,
Clc1ccc(Cl)nc1,,,,,60.5,,,
CCCCCCOC(=O)c1ccccc1,,,,,,272,,
Clc1ccc(Cc2ccc(Cl)cc2)cc1,,,,,55.5,,,
Cc1cc(O)cc(O)c1C,,,,,136,284,,
CCCNC(=O)NCCC,,,,,105,255,,
O=COC1CCCCC1,,,,,,163,,
OCCc1ccccc1,-6.59,1.5,-1.06,readily biodegradable,-27,218,,
Nc1ccc2cc(S(=O)(=O)O)cc(O)c2c1,,,,not readily biodegradable,,,,
CN(C(=O)C(Cl)Cl)c1ccc(O)cc1,,,,,175,,,
N#Cc1cccc(N)c1,,,,,54.3,289,,
Cc1cc(C)c(Cl)c(O)c1Cl,,,,,87.5,,,
CCN1C(=O)C=CC1=O,,,,,45.5,,,

SMILES,log10 Henry constant (atm·m³/mol),log10 Koc (L/kg),log10 vapour pressure (mmHg),ready biodegradability,melting point [°C],boiling point [°C],log10 Koa,log10 biodegradation half-life (days)
CCCCc1c(C)nc(NCC)nc1OS(=O)(=O)N(C)C,,,-6.12,,50.5,,,
c1ccc2scnc2c1,,,,not readily biodegradable,2,231,,
C[C@H]1CCC(=O)N1,,,,,43,248,,
Clc1ccc(Oc2ccc(Cl)cc2Cl)cc1,,,-3.82,,,,,
CCCCCCCCCCCCCCCCCCC1CCCCC1,,,,,41.6,409,,
CCC1(C)CC(=O)NC1=O (stereo not drawn),,,,,65,,,
CNC(=O)ON=CC(C)(C)SC,,1.5,-4.46,,99,,,
CC(=O)NC(N)=S,,,,,165,,,
Clc1cccc(Br)c1Cl,,,,,60,245,,
CCCCCCCCCCCCCCCC(=O)OC(C)C,,,-4.25,,13.5,,,
CCN(CC)c1ccc(Br)cc1,,,,,38,270,,
NS(=O)(=O)c1ccc(S(=O)(=O)CCO)c(F)c1,,,,,165,,,
CCC(Oc1c(I)cc(I)cc1I)C(=O)O (stereo not drawn),,,,,124,,,
CCCCN1CCCCC1,,,,,,176,,
CCOC(=O)c1ccncc1,,,,,23,220,,
O=C(CCl)c1ccccc1,,,-2.27,,56.5,247,,
CC1CC(C)NC(C)C1 (stereo not drawn),,,,,,145,,
FC(F)(Br)C(F)(F)C(F)(F)C(F)(F)Br,,,,,,97,,
BrC(Br)=C(Br)Br,,,,,56.5,226,,
CCOC(=O)C(C)Oc1ccc(Oc2nc3ccc(Cl)cc3o2)cc1 (stereo not drawn),,3.98,,,86.2,,,
CC(=O)OCCOC(C)=O,,,-1.11,readily biodegradable,-31,190,,
O=C1CCCCCC1=O,,,,,-40,,,
CCc1cccc([N+](=O)[O-])c1,,,,,-37.9,242,,
CN(C)C(=O)Nc1ccc(Cl)c(Cl)c1,,2.4,-7.16,not readily biodegradable,158,,,
Oc1c(Cl)ccc(Cl)c1Cl,,,,,58,,,

SMILES,log10 Henry constant (atm·m³/mol),log10 Koc (L/kg),log10 vapour pressure (mmHg),ready biodegradability,melting point [°C],boiling point [°C],log10 Koa,log10 biodegradation half-life (days)
Nc1ccccc1Br,,,,,32,229,,
O=C(OCC(O)CO)c1ccccc1Nc1ccnc2c(C(F)(F)F)cccc12 (stereo not drawn),,,,,180,,,
CCOCC(=O)O,,,,,,206,,
Cc1ccc2cc(C)ccc2c1,,,-2.37,,112,262,,
Clc1ccc(Oc2ccc(Cl)cc2)cc1,,,-3.3,,30,313,,
COc1ccc2c(c1)C(=O)N(CCc1ccc(S(=O)(=O)NC(=O)NC3CCCCC3)cc1)C(=O)C2(C)C,,,,,181,,,
O=C(O)c1ccc(O)c(O)c1O,,,,,221,,,
FC(F)(F)C(F)(Cl)C(F)(F)Cl (stereo not drawn),,,,,,34.1,,
O=c1n(CCCN2CCN(c3cccc(Cl)c3)CC2)nc2ccccn12,,,,,87,,,
CN(C)C(CSC(N)=O)CSC(N)=O,,,,not readily biodegradable,,,,
CC(S)CS (stereo not drawn),,,,,,152,,
Cc1cc(O)c([N+](=O)[O-])cc1Cl,,,-3.07,,133,,,
Clc1cc(Cl)c(Cl)c(Cl)c1,-2.8,3.2,-1.26,,54.5,,5.55,
CCOCCO,-6.33,,0.725,readily biodegradable,-70,135,,
Cc1ccc2ccc3cccc4ccc1c2c34,,,,,,,,1.96
C=C1CC(=O)O1,,,1.03,readily biodegradable,-6.5,126,,
OC1CCCCC1c1ccccc1 (stereo not drawn),,,-1.44,,,228,,
CCCCOCCOC(C)=O,-5.26,,-0.426,,-63,192,,
CCCC(=O)OC(=O)CCC,,,-0.548,,-75,200,,
Nc1ccc(Cl)cc1N,,,,,76,229,,
CC(C)(C)C(C)(C)Cl,,,,,136,,,
CC1CC(C)(C)CCC1=O (stereo not drawn),,,,,,191,,
NCc1ccncc1,,,,,-7.6,230,,
COc1cc(NS(C)(=O)=O)ccc1Nc1c2ccccc2nc2ccccc12,,,,,235,,,

# Same assay, conditions: fish
SMILES,log10 BCF,log10 biotransformation half-life (days)
CCOP(=S)(OCC)Oc1cc(C)nc(C(C)C)n1,1.85,0.07
c1cc2c(c3c1CCCC3)CCCC2,,0.76
CCOP(=S)(Oc1ccc([N+](=O)[O-])cc1)c1ccccc1 (stereo not drawn),2.97,
c1ccc2nc3ccccc3cc2c1,2.1,
CC(C)(CO)CO,0.67,
Nc1ccc2cc(S(=O)(=O)O)cc(O)c2c1,0.61,
c1ccc2scnc2c1,0.88,-0.86
Clc1ccc(Oc2ccc(Cl)cc2Cl)cc1,,1.72
CN(C)C(=O)Nc1ccc(Cl)c(Cl)c1,1.15,-1.45
Clc1cc(Cl)c(Cl)c(Cl)c1,3.59,
Cc1ccc2ccc3cccc4ccc1c2c34,,0.11
